This assay has as its system Aspergillus niger DSMZ 737. Put plainly: Minimum Inhibition Concentration (MIC) test in YG broth cell culture plates. To be noted: substance alone, 3 days at 30° C., no visible growth of mycelium. The class given is cell-based. As to the method: Further tests have been conducted to establish synergistic activity of the antimycotic cocktails of the present invention. These tests are based on determination of the Minimum Inhibition Concentration (MIC).
For the tests, cell culture plates with YG broth as a base were used. Test samples were inoculated with a conidial suspension of Aspergillus niger DSMZ 737 and incubated for 3 days at 30° C. The targeted spore count was at approximately 10^5 spores/ml. As Minimal Inhibition Concentration (MIC) the concentration of active ingredient with no visible growth of mycelium in the cavity was defined. In addition, results were confirmed microscopically and in a culture on YGC plates.
To dissolve the different mixtures, one of the following media was used as appropriate: distilled water; distilled water+0.5% Tween 80; distilled water+0.4% Lecithine.

In general, MIC refers to the least concentration at which growth counts as inhibited. Turning to `CCCCCCCC(=O)O` [caprylic acid], the MIC (Aspergillus niger, DSMZ737, 72 h) was 2000 µg/mL.

For `O=C(O)CC(O)C(=O)O` (stereo not drawn) [malic acid], the “Minimum Inhibition Concentration (MIC)” value is reported as “no MIC”. On to cinnamon aldehyde, for which the “Minimum Inhibition Concentration (MIC)” value is recorded as 200 ppm.

The values are drawn from patent US20120282356A1, “COMPOSITIONS FOR PREVENTION AGAINST SPOILAGE BY MOULDS AND YEASTS AND USES AND PRODUCTS RELATED THERETO” (MARS INCORPORATED, priority 2009, published 2012).
